# Laboratory results: patent publication US11865090B2, “Tumor suppressive microRNAs for cancer therapy” (Hadasit Medical Research Services and Development Ltd., priority 2018, dated 2024)
# Experiments:
# miR-122 promoter [1] = assay: miR-122 promoter luciferase reporter (PmiR-122-900) in Huh7 cells; assay type: cell-based, human; conditions: 10 μM overnight, measured 48 hours post transfection, normalized to Renilla
# Method: (§1) Huh7 cells or BNL-1ME cells were transfected with the reporter constructs PmiR-122-900 (wt) or PmiR-122-900 mutated (mut) at RORα binding site. These constructs harbour about 1 kb of miR-122 promoter sequence (wt or mutated at the ROR alpha binding site), ligated to a luciferase (Luc) reporter gene. […] Controls included incubation of the cells with 0.4% DMSO (negative control), or with 75 μM Lauric acid (LA), which is a known activator of ROR-alpha. Luciferase activity was measured 48 hours post transfection and normalized to Renilla Luciferase activity expressed from a co-transfected pRL plasmid.
# miR-122 promoter [2] = assay: miR-122 promoter luciferase reporter (PmiR-122-900) in BNL-1ME cells; assay type: cell-based, mouse; conditions: 10 μM overnight, measured 48 hours post transfection, normalized to Renilla
# Method: as §1
# miR-122 [3] = assay: In vivo miR-122 and CD24 mRNA levels after injection into BALB/C mice
# Method: As shown in FIG. 8A—SR1078 agent (ROR alpha activator) was injected (1-5 μM) into BALB/C mice and was able to induce miR-122 expression within 3 hours, as indicated by the increased relative expression levels of miR-122 in the liver. miRNA-122 increased expression is in hepatocytes (“producing cells”).
# The CD24 gene, the protein product of which is expressed on hepatic progenitors, is a target of miR-122.
# miR-122 [4] = assay: AGPAT1-3'UTR (miR-122 target site) luciferase reporter in Huh7 cells; assay type: cell-based, human; conditions: 10 μM for 24 hours, DNMT1 3'-UTR as negative control
# Method: Next, Huh7 cells were transfected with a reporter plasmid carrying the human AGPAT1-3′UTR (miR-122 target site) or a negative control reporter plasmid, DNMT1 3′-UTR. Cells were treated for 24 hours with: 0.4% DMSO, or with 75 μM lauric acid (LA) or with RORα agonist (10 μM SR1078) for 24 hours. Presented in FIG. 4B are bar graphs showing the results of the Luciferase assay. Luciferase activity was measured 48 hours post transfection and normalized to Renilla Luciferase activity expressed from a co-transfected pRL plasmid.
# miR-34a = miR-34a expression and secretion in Huh7 cells (RT-qPCR); assay type: cell-based, human; conditions: 10 μM overnight
# Method: Huh7 cells treated with ROR-alpha agonist SR1078 (10 μM) overnight (o/n). Upon treatment, primary miR-34a expression levels and mature miR-34a secretion were elevated. miR-34a levels were tested in the cells and in their culture medium using RT-qPCR. The results clearly show elevation in the levels of miR-34a in the cells, as well as a marked elevation of the miR-34a in the external medium, indicating the miR-34a is secreted from the cells.
# miR-122 [5] = assay: qRT-PCR of miR-122 in medium of Huh7 cells; assay type: cell-based, human; conditions: 10 μM for 24 hours, normalized to spiked miR-39
# Method: Shown in FIG. 4C is qRT-PCR analysis of miR-122 and miR-18 (negative control) in RNA extracted from the medium of Huh7 cells treated with 0.4% DMSO, 75 μM lauric acid (LA) or 10 μM RORα agonist (SR1078) for 24 hours. The microRNA levels in the cells' medium were normalized to spiked C. elegance miR-39.
# miR-122 [6] = assay: In vivo miR-122 and CD24 mRNA levels after injection into MDR2 knockout mice; conditions: three months old MDR2 KO mice, 6 hours after administration
# Method: Similar effect is also apparent in measurements performed 6 hours after administration of the inducing agent, to three months old MDR2 knockout (KO) mice (which is a mice that develops liver cancer). This is presented in FIGS. 8C-D, which show the increase in relative levels of miR-122 (FIG. 8C) in liver extracts (hepatocytes) and the reciprocal reduction of CD24 relative expression levels (FIG. 8D), in progenitor cells.
compound,measurement,setting,value
O=C(Nc1ccc(C(O)(C(F)(F)F)C(F)(F)F)cc1)c1ccc(C(F)(F)F)cc1 [SR1078],miR-122 promoter activity (Luciferase reporter),miR-122 promoter [1],activation of the miR-122 promoter
same,miR-122 promoter activity (Luciferase reporter),miR-122 promoter [2],activation of the miR-122 promoter
same,relative levels (RQ) of mRNA of CD24 in hepatic progenitor cells,miR-122 [3]; after injection of SR1078,reduced
same,relative expression levels of miR-122 in the liver,"miR-122 [3]; injected (1-5 μM), 3 hours",increased
same,expression of active miR-122 acting on AGPAT1 reporter construct (Luciferase assay),miR-122 [4],increased expression of active miRNA
same,mature miR-34a secretion,miR-34a; RT-qPCR in culture medium,elevated
same,primary miR-34a expression levels,miR-34a; RT-qPCR in the cells,elevated
same,miRNA-122 levels in the medium,miR-122 [5],increase
same,CD24 relative expression levels in progenitor cells,miR-122 [6],reduction
same,relative levels of miR-122 in liver extracts (hepatocytes),miR-122 [6],increase
